Measurements from patent US11214578B2, “Urea/carbamates FAAH MAGL or dual FAAH/MAGL inhibitors and uses thereof” (Northeastern University, priority 2014, dated 2022).
pIC50: −log10 of the molar value.

Tests used:
Type in all cases: biochemical
ΔTM rat FAAH = target: T1, ΔTM rat FAAH (Rattus norvegicus, UniProt P97612); assay: Fluorescent assay protocol for ΔTM rat FAAH (AAMCA substrate); conditions: 15 min preincubation, read-out: IC50 rFAAH
T1 construct: Preparation of Transmembrane Domain-Deleted Rat FAAH (ΔTM rFAAH); made in house; host or cells: E. coli
T1 sequence (P97612 30-579 limits assumed): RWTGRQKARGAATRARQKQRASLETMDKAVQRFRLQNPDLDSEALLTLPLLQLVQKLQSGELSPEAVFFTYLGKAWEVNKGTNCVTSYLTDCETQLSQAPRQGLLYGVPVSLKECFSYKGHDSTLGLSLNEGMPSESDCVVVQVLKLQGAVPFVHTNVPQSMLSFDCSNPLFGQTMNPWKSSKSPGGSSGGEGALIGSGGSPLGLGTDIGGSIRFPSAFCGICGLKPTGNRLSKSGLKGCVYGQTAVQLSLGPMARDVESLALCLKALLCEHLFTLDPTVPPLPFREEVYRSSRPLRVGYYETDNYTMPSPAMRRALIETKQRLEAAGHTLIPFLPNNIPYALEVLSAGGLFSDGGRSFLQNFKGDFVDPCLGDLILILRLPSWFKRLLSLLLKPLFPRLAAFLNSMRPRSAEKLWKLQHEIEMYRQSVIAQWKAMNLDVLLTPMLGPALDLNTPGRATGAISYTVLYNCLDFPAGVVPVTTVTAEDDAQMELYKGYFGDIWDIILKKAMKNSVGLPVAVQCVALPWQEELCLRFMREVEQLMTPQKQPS
Protocol: Procedure was followed as described for hMAGL, except that arachidonoyl-methyl coumarin amide (AAMCA) was used as fluorigenic substrate. […] For the screening assay, 3 concentrations (1 μM, 10 μM, and 100 μM) of test compounds, 15 μg of ΔTM rFAAH and assay buffer were pre-incubated for 15 min at 25° C. […] The fluorescence reading at the 3 hour time point (linear enzyme kinetics) was used to calculate percent inhibition based on control assays without inhibitor present. All FAAH assays were performed in triplicate for each inhibitor concentration, and IC50 values determined using Prizm software (GraphPad Software, Inc.).

Rat MAGL (rMAGL) = target: T2, Rat MAGL (rMAGL) (Rattus norvegicus, UniProt Q8R431); assay: Fluorescent assay protocol for rMAGL; conditions: recombinant rat MAGL, procedure as for hMAGL; read-out: IC50 rMAGL
T2 construct: made in house; host or cells: E. coli
T2 sequence (Q8R431 1-303): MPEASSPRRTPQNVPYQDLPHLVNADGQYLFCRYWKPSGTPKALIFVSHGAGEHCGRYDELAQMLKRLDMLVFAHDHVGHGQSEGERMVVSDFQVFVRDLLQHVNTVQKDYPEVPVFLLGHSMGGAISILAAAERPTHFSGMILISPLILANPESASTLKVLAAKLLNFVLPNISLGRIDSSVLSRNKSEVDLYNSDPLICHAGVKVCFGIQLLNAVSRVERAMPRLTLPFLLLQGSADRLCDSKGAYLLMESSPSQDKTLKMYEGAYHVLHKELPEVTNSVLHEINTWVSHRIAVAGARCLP
Protocol: (§1) This medium throughput assay involved a 96-well plate format in which hMAGL activity was monitored by the hydrolysis of the substrate 7-hydroxy-6-methoxy-4-methylcoumarin ester (AHMMCE) to form the fluorescent product, coumarin. […] Upon the addition of AHMMCE, the reaction was incubated at 25° C. for 120 min; fluorescence readings were taken every 15 min at 360 nm/460 nm (λexcitation/λemission) using a Synergy HT Plate Reader (Bio-Tek, Winooski, Vt.). […] External standards were used to convert relative fluorescence units to the amount of 4-methylcoumarin formed. All MAGL assays were performed in triplicate for each inhibitor concentration, and IC50 values were calculated using Prizm software (GraphPad Software, Inc., San Diego, Calif.).
Procedure was followed as described for hMAGL.

Human FAAH (MBPΔTMhFAAH) = target: T3, Human FAAH (MBPΔTMhFAAH) (Homo sapiens, UniProt O00519); assay: Fluorescent assay protocol for hFAAH; conditions: human FAAH (MBP fusion, ΔTM), procedure as for rFAAH
T3 construct: made in house; host or cells: E. coli (pMALcE4 vector)
T3 sequence (O00519 30-579 limits assumed): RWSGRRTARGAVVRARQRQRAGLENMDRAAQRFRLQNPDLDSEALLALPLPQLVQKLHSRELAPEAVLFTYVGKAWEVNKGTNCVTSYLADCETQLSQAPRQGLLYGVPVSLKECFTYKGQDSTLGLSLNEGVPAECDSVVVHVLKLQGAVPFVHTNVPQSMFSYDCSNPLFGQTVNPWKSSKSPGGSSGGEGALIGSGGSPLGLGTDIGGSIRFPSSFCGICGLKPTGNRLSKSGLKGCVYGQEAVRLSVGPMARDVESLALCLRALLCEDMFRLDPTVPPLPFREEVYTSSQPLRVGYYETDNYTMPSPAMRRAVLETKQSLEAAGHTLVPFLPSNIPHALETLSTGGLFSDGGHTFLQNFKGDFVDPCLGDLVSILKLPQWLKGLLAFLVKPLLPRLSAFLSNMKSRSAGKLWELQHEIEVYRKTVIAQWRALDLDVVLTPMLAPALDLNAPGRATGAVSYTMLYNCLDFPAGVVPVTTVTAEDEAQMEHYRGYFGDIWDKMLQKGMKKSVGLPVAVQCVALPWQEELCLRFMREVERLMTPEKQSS
Protocol: Human FAAH without putative transmembrane domain following maltose binding protein was expressed in E. coli cells using pMALcE4 vector Alapafuja et al J. Med. Chem. (2012) 55: 10074-89.
Procedure was followed as described for hMAGL, except that arachidonoyl-methyl coumarin amide (AAMCA) was used as fluorigenic substrate. Compounds were diluted in 50:50 DMSO/assay buffer (50 mM HEPES, 1 mM EDTA, 0.1% BSA, pH 7.4) so as to have a final DMSO concentration below 8% in each reaction. For the screening assay, 3 concentrations (1 μM, 10 μM, and 100 μM) of test compounds, 15 μg of ΔTM rFAAH and assay buffer were pre-incubated for 15 min at 25° C. AAMCA (20 μM, 2×Km) was added prior to incubation at 25° C. and kinetic fluorescence reading every 20 minutes (λex=360/λem=460) for 4 hours on a BioTek Synergy HT Microplate Reader (BioTek Instruments, Winooski, Vt.). The fluorescence reading at the 3 hour time point (linear enzyme kinetics) was used to calculate percent inhibition based on control assays without inhibitor present. All FAAH assays were performed in triplicate for each inhibitor concentration, and IC50 values determined using Prizm software (GraphPad Software, Inc.).
Procedure was followed as described for rFAAH.

Human MAGL (hMAGL) = target: T4, Human MAGL (hMAGL) (Homo sapiens, UniProt Q99685); assay: Fluorescent assay protocol for hMAGL (AHMMCE substrate); conditions: recombinant human MAGL, AHMMCE substrate, 15 min preincubation; read-out: IC50 hMAGL
T4 construct: hexahistidine; made in house; host or cells: E. coli
T4 sequence (Q99685 1-303): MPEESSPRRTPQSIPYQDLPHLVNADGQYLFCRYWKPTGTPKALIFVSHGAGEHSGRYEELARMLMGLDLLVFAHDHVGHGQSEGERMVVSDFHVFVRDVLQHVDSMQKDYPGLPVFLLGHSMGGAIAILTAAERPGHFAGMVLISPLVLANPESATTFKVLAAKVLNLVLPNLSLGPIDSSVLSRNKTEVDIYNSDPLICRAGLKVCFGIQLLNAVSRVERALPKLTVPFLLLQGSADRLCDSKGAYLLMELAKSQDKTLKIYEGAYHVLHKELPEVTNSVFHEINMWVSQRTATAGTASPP
Protocol: as §1

| SMILES | pIC50 (ΔTM rat FAAH) | pIC50 (Rat MAGL (rMAGL)) | pIC50 (Human FAAH (MBPΔTMhFAAH)) | pIC50 (Human MAGL (hMAGL)) |
| --- | --- | --- | --- | --- |
| NC(=O)c1cccc(-c2cccc(NC(=O)N3CCN(Cc4cnc5ccccc5c4)CC3)c2)c1 [Example 6, N-(3′-carbamoyl-[1,1′-biphenyl]-3-yl)-4-(quinolin-3-ylmethyl)piperazine-1-carboxamide] | 7.00 to 8.00 | 6.00 to 6.96 | 7.00 to 8.00 | 6.00 to 6.96 |
| COc1cccc(OC(=O)N2CC(OCc3ccc(Br)cc3)C2)c1 [Example 78, 3-Methoxyphenyl 3-(4-Bromobenzyloxy)azetidine-1-carboxylate] | 7.00 to 8.00 | < 6.00 | 7.00 to 8.00 | < 6.00 |
| COC(=O)c1cccc(OC(=O)N2CCC(OC(c3ccccc3)c3ccccc3)CC2)c1 [Example 55, 3-(methoxycarbonyl)phenyl 4-(benzhydryloxy)piperidine-1-carboxylate] | 7.00 to 8.00 | 6.00 to 6.96 | 7.00 to 8.00 | 7.00 to 8.00 |
| COC(=O)c1cccc(OC(=O)N2CCC(=C(c3ccccc3)c3ccccc3)CC2)c1 [Example 48, 3-(methoxycarbonyl)phenyl 4-(diphenylmethylene)piperidine-1-carboxylate] | 6.00 to 6.96 | < 6.00 | 7.00 to 8.00 | < 6.00 |
| N#Cc1cccnc1OC(=O)N1CCN(C2c3ccccc3-c3ccccc32)CC1 [Example 43, 3-cyanopyridin-2-yl 4-(9H-fluoren-9-yl)piperazine-1-carboxylate] | < 6.00 | 7.00 to 8.00 | < 6.00 | 7.00 to 8.00 |
| N#Cc1cccc(OC(=O)N2CC(OCc3ccc(Cl)cc3)C2)c1 [Example 74, 3-Cyanophenyl 3-(4-chlorobenzyloxy)azetidine-1-carboxylate] | 7.00 to 8.00 | < 6.00 | 7.00 to 8.00 | 6.00 to 6.96 |
| N#Cc1cc(O)cc(OC(=O)N2CCN(C(c3ccccc3)c3ccccc3)CC2)c1 [Example 38, 3-cyano-5-hydroxyphenyl 4-benzhydrylpiperazine-1-carboxylate] | 6.00 to 6.96 | < 6.00 | 6.00 to 6.96 | < 6.00 |
| O=C(N1CCN(C(c2ccc(F)cc2)c2ccc(F)cc2)CC1)n1cnc(-c2ccccc2)c1 [Example 29, (4-(bis(4-fluorophenyl)methyl)piperazin-1-yl)(4-phenyl-1H-imidazol-1-yl)methanone] | 6.00 to 6.96 | < 6.00 | 6.00 to 6.96 | < 6.00 |
| O=C(N1CC(OCc2ccc(Br)cc2)C1)n1cnc(-c2ccccc2)c1 [Example 86, (3-(4-Bromobenzyloxy)azetidin-1-yl)(4-phenyl-1H-imidazol-1-yl)methanone] | 7.00 to 8.00 | < 6.00 | 7.00 to 8.00 | < 6.00 |
| O=C(N1C[C@@H]2C[C@H]1CN2c1cccc(F)c1)n1cnc(-c2ccccc2)c1 [Example 97, ((1 S,4S)-5-(3-fluorophenyl)-2,5-diazabicyclo[2.2.1]heptan-2-yl)(4-phenyl-1H-imidazol-1-yl)methanone] | 6.00 to 6.96 | < 6.00 | 6.00 to 6.96 | < 6.00 |
| O=C(Oc1cccc(N2CCS(=O)(=O)CC2)c1)N1CCN(Cc2ccc3ccccc3n2)CC1 [Example 72, 3-(1,1-dioxidothiomorpholino)phenyl 4-(quinolin-2-ylmethyl)piperazine-1-carboxylate] | 6.00 to 6.96 | 6.00 to 6.96 | 6.00 to 6.96 | 6.00 to 6.96 |
| N#Cc1cccc(-c2cccc(NC(=O)N3CCC4(CC3)CC(=O)c3ccccc3O4)c2)c1 [Example 20, N-(3′-cyano-[1,1′-biphenyl]-3-yl)-4-oxospiro[chromane-2,4′-piperidine]-1′-carboxamide] | 6.00 to 6.96 | < 6.00 | 6.00 to 6.96 | < 6.00 |
| O=C(N1CC(N2CCC(c3ccccc3)CC2)C1)n1cnc(-c2ccccc2)c1 [Example 85, (4-Phenyl-1H-imidazol-1-yl)(3-(4-phenylpiperidin-1-yl)azetidin-1-yl)methanone] | 7.00 to 8.00 | < 6.00 | 7.00 to 8.00 | < 6.00 |
| NC(=O)c1cccc(-c2cccc(NC(=O)N3CCN(Cc4ccc5ccccc5n4)CC3)c2)c1 [Example 12, N-(3′-carbamoyl-[1,1′-biphenyl]-3-yl)-4-(quinolin-2-ylmethyl)piperazine-1-carboxamide] | 7.00 to 8.00 | < 6.00 | 7.00 to 8.00 | < 6.00 |
| C[C@H]1CN(Cc2cccc(Oc3ccccc3)c2)CCN1C(=O)Nc1cncc(-c2cccc(C#N)c2)c1 [Example 5, (S)—N-(5-(3-cyanophenyl)pyridin-3-yl)-2-methyl-4-(3-phenoxybenzyl)piperazine-1-carboxamide] | < 6.00 | < 6.00 | < 6.00 | < 6.00 |
| C[C@H]1CN(Cc2cccc(Oc3ccccc3)c2)CCN1C(=O)n1cnc(Br)c1 [Example 22, (S)-(4-bromo-1H-imidazol-1-yl)(2-methyl-4-(3-phenoxybenzyl)piperazin-1-yl)methanone] | 6.00 to 6.96 | < 6.00 | 6.00 to 6.96 | < 6.00 |
